# Data taken from US5877026A, “Analgesic peptides from venom of Grammostola spatulata and use thereof” (priority 1998, dated 1999).
# Where no end group is shown, it is not given here.
# Assays:
# Format in all cases: in vivo, rat
# Sprague-Dawley rats [1] = experiment: Hot plate threshold
# Experimental: This test measures the temperature at which point a rat voluntarily removes one of its hindlimbs from the heated surface and either shakes or lick the affected appendage. The temperature of the heated surface is pre-set to the experimentally deduced value of 38° C. and a maximum cutoff value of either 53° C. or 54° C. has been used. Data is expressed either as absolute temperature in degrees C. or as percentage maximal possible effect as described by the formula [formula] (54 is substituted for 53 in the above formula if it is the maximal value.)
# (§1) With minimal restraint, peptide GsAF I was injected intrathecally (i.th.) into young (75-150 gram) male Sprague-Dawley rats (Charles Rivers Laboratories, Wilmington, Mass.) into the spinal subarachnoid space between lumbar spinous processes L4 and L5 using 10 microliter Hamilton syringes equipped with 3/8 inch by 28G needles. Dosing levels were based upon concentrations deduced from ultraviolet absorbance values at 280 nm using an extinction coefficient of 18710. Injection volume was 10 microliters. The injection vehicle was saline or 0.1 %bovine serum albumin(BSA)/saline. The rats were pretreated with GsAF I 30 minutes prior to exposure to heat.
# as §1, with “GsAF II” for “GsAF I”, “or 0.1% bovine” for “or 0.1 %bovine”, “GsAF II 15” for “GsAF I 30”
# Sprague-Dawley rats [2] = experiment: Formalin pain test; details: for Acute Flinches, % control / Acute Flinches, absolute level: 0-5 minutes post formalin; for Tonic Flinches, % control / Tonic Flinches, absolute level / Tonic Licking, % control / Tonic Licking, absolute level: 20-35 minutes post formalin
# Experimental: The noxious stimulus for this test is the sub-cutaneous injection of a 5% solution of formalin into the dorsal surface of one of the hindlimbs of the animal. Motor activity indices used in this test are 1) the total time spent licking that appendage and 2) the total number of flinching/shaking responses of the affected appendage. Data collection is initiated immediately upon injection of the formalin solution into the limb. The acute phase response is defined by the time interval of 0-5 minutes post formalin injection. The tonic phase response is defined by the interval of 20-35 minutes post formalin injection Data collection is done in a computerized format. Expression of the data is done using either absolute values or as percent control which is defined by the level of response following injection of saline vehicle.
# as §1, with “0.1% bovine” for “0.1 %bovine”, “injection with the formalin solution.” for “exposure to heat.”
# as §1, with “GsAF II” for “GsAF I”, “nm as stated previously. Based upon a mass” for “nm using an extinction coefficient”, “of 3980 Da, 583 pmoles corresponds to 2.3 micrograms of GsAF II, and 2.33 nmoles corresponds to 9.3 micrograms of GsAF II.” for “of 18710.”, “0.1 % bovine” for “0.1 %bovine”, “GsAF II 15” for “GsAF I 30”, “to injection with formalin.” for “to exposure to heat.”
# In addition to the above analyses, 180 pmoles (666 nanograms) of GsAF I was administered 5 minutes after injection of 5% formalin and the tonic phase responses were recorded as described previously. The highly efficacious activity of GsAF I was retained. Tonic flinch response was inhibited 86% (i.e. 14% of control) and tonic lick duration was reduced 91 % (i.e. 9% of control). This property has only been reported for strong analgesic compounds that interact with μ-opioid receptors.
# Sprague-Dawley rats [3] = experiment: Tail flick latency
# Source text: This test measures the time interval required for a rat to withdraw its tail, via a spinally mediated reflex mechanism, from a high intensity light source (IITC Inc./Life Sciences Instruments, Woodland Hills, Calif. 91367) focally applied to the dorsal surface of the appendage. The intensity of the light beam has been experimentally defined such that naive animals will withdraw their tails within 2 to 4 seconds. A maximum cut off time for the light source has been set at ten seconds to reduce the amount of secondary tissue damage.
# Data is expressed either as absolute time or a percentage of the maximal possible effect (MPE) which is described by the following equation where 10 seconds is the maximum: [formula] (Latency refers to the amount of time before the animal removed its appendage from the light source.)
# as §1, with “Mass. 01887). I.th. injections were made” for “Mass.)”, “0.1% bovine” for “0.1 %bovine”, “the light source.” for “heat.”
# With minimal restraint, peptide GsAF II was injected intrathecally (i.th.) into young (75-150 gram) male Sprague-Dawley rats (Charles Rivers Laboratories, Wilmington, Mass.)) into the spinal subarachnoid space between lumbar spinous processes L4 and L5 using 10 microliter Hamilton syringes equipped with 3/8 inch by 28G needles. Dosing levels were based upon concentrations deduced from ultraviolet absorbance values at 280 nm using the deduced molar extinction coefficient of 24310. Injection volume was 10 microliters. The injection vehicle was saline or 0.1% bovine serum albumin(BSA)/saline. The rats were pretreated with GsAF II 15 minutes prior to exposure to the light source.
# [4] = 1.8 pmoles i.th., 30 minutes pretreatment
# [5] = 18 pmoles i.th., 30 minutes pretreatment
# [6] = 180 pmoles (666 nanograms) administered 5 minutes after injection of 5% formalin
# [7] = 180 pmoles i.th., 30 minutes pretreatment
# [8] = 583 pmoles i.th., 15 minutes pretreatment
# [9] = 2.33 nmoles i.th., 15 minutes pretreatment
# [10] = 583 picomoles (2.33 micrograms) i.th., 15 minutes pretreatment
substance,measurement,setting,value
Tyr-Cys-Gln-Lys-Trp-Leu-Trp-Thr-Cys-Asp-Ser-Glu-Arg-Lys-Cys-Cys-Glu-Asp-Met-Val-Cys-Arg-Leu-Trp-Cys-Lys-Lys-Arg-Leu-NH2 (YCQKWLWTCDSERKCCEDMVCRLWCKKRL-NH2; cysteine pairing not given here) [GsAF I],"MPE, hot plate threshold","Sprague-Dawley rats [1]; 18 picomoles (6.6 nanograms) i.th., one hour pretreatment",24 % MPE
same,activity in hot plate threshold,"Sprague-Dawley rats [1]; 18 picomoles i.th., 30 minute pretreatment",loss of significant activity
same,adverse motor effects,Sprague-Dawley rats [1]; 180 and 18 picomoles i.th.,No adverse motor effects were evident
same,"MPE, hot plate threshold","Sprague-Dawley rats [1]; 180 picomole (66 nanograms) i.th., one hour pretreatment",91 % MPE
same,"MPE, hot plate threshold","Sprague-Dawley rats [1]; 180 picomoles (666 nanograms) i.th., 30 minute pretreatment",70 % MPE
same,"Acute Flinches, % control",Sprague-Dawley rats [2]; [4],28%
same,"Acute Flinches, absolute level",Sprague-Dawley rats [2]; [4],12
same,"Tonic Flinches, % control",Sprague-Dawley rats [2]; [4],32%
same,"Tonic Flinches, absolute level",Sprague-Dawley rats [2]; [4],44.3
same,"Tonic Licking, % control",Sprague-Dawley rats [2]; [4],46%
same,"Tonic Licking, absolute level",Sprague-Dawley rats [2]; [4],84.3 s
same,"Acute Flinches, % control",Sprague-Dawley rats [2]; [5],20%
same,"Acute Flinches, absolute level",Sprague-Dawley rats [2]; [5],8.5
same,"Tonic Flinches, % control",Sprague-Dawley rats [2]; [5],21%
same,"Tonic Flinches, absolute level",Sprague-Dawley rats [2]; [5],29.5
same,"Tonic Licking, % control",Sprague-Dawley rats [2]; [5],8.4%
same,"Tonic Licking, absolute level",Sprague-Dawley rats [2]; [5],15.3 s
same,"Tonic flinch response, % of control",Sprague-Dawley rats [2]; [6],14 % of control
same,"Tonic flinch response, inhibition",Sprague-Dawley rats [2]; [6],86%
same,"tonic lick duration, % of control",Sprague-Dawley rats [2]; [6],9 % of control
same,"tonic lick duration, reduction",Sprague-Dawley rats [2]; [6],91%
same,"Acute Flinches, % control",Sprague-Dawley rats [2]; [7],8.9%
same,"Acute Flinches, absolute level",Sprague-Dawley rats [2]; [7],3.8
same,"Tonic Flinches, % control",Sprague-Dawley rats [2]; [7],3.0%
same,"Tonic Flinches, absolute level",Sprague-Dawley rats [2]; [7],4.3
same,"Tonic Licking, % control",Sprague-Dawley rats [2]; [7],0%
same,"Tonic Licking, absolute level",Sprague-Dawley rats [2]; [7],0 s
same,activity in tail flick latency,"Sprague-Dawley rats [3]; 1.8 picomoles (6.6 nanograms) i.th., 30 minutes pretreatment",inactive
same,"MPE, tail flick latency","Sprague-Dawley rats [3]; 18 picomoles (66 nanograms) i.th., 30 minutes pretreatment",29 % MPE
same,"MPE, tail flick latency","Sprague-Dawley rats [3]; 180 picomoles (666 nanograms) i.th., 30 minutes pretreatment",95 % MPE
same,inhibition of the tail flick response (latency value greater than 10 seconds),"Sprague-Dawley rats [3]; 180 picomoles (666 nanograms) i.th., in most rats",Complete inhibition
same,"confounding side effects (motor disturbances, limb impairment/paralysis, righting reflex, sedation)",Sprague-Dawley rats [3]; 180 picomoles i.th.,either minimal or not present
same,pretreatment time with maximal activity,"Sprague-Dawley rats [3]; i.th., tail flick",30 min
YCQKWMWTCDEERKCCEGLVCRLWCKKKIEW (cysteine pairing not given here) [GsAF II],"MPE, hot plate threshold","Sprague-Dawley rats [1]; 2.33 nanomole (9.27 micrograms) i.th., 15 minutes pretreatment, all animals",100 % MPE
same,motor coordination problems,Sprague-Dawley rats [1]; 2.33 nanomole and 583 picomoles i.th.,No motor coordination problems were witnessed
same,"average MPE, hot plate threshold","Sprague-Dawley rats [1]; 583 picomoles (2.32 micrograms) i.th., 15 minutes pretreatment",59%
same,"Acute Flinches, % control",Sprague-Dawley rats [2]; [8],41%
same,"Acute Flinches, absolute level",Sprague-Dawley rats [2]; [8],6.8
same,"Tonic Flinches, % control",Sprague-Dawley rats [2]; [8],9.5%
same,"Tonic Flinches, absolute level",Sprague-Dawley rats [2]; [8],8.2
same,"Tonic Licking, % control",Sprague-Dawley rats [2]; [8],8.2%
same,"Tonic Licking, absolute level",Sprague-Dawley rats [2]; [8],7.8 s
same,"Acute Flinches, % control",Sprague-Dawley rats [2]; [9],19%
same,"Acute Flinches, absolute level",Sprague-Dawley rats [2]; [9],3.25
same,"Tonic Flinches, % control",Sprague-Dawley rats [2]; [9],1.4%
same,"Tonic Flinches, absolute level",Sprague-Dawley rats [2]; [9],1.2
same,"Tonic Licking, % control",Sprague-Dawley rats [2]; [9],0%
same,"Tonic Licking, absolute level",Sprague-Dawley rats [2]; [9],0 s
same,inhibition of the tail flick response (latency greater than ten seconds),"Sprague-Dawley rats [3]; 2.33 nanomoles (9.27 micrograms) i.th., 15 minutes pretreatment, all animals (n=8)",Complete inhibition
same,confounding side effects,Sprague-Dawley rats [3]; 2.33 nanomoles and 583 picomoles i.th.,no confounding side effects were detected
same,"animals with 100% MPE, tail flick",Sprague-Dawley rats [3]; [10],five of six
same,"average MPE, tail flick latency",Sprague-Dawley rats [3]; [10],92%
